This passage reports residual activity results from ChEMBL document CHEMBL1681705, “Optimisation of ITK inhibitors through successive iterative design cycles” (Bioorg Med Chem Lett, 2011).

In test [1] the target is Protein kinase C theta type (Homo sapiens) (UniProt Q04759). The test can be described thus: Inhibition of PKCtheta at 1 uM; values are per cent of control.
In test [2] the target is Insulin-like growth factor 1 receptor (Homo sapiens) (UniProt P08069). Briefly: Inhibition of IGF1R at 0.1 uM; values are per cent of control.
For test [3], the target named is Fibroblast growth factor receptor 2 (Homo sapiens) (UniProt P21802). Briefly: Inhibition of FGFR2 at 0.1 uM; values are per cent of control.
For test [4], the target named is T1, Dual specificity mitogen-activated protein kinase kinase 7 (Homo sapiens) (UniProt O14733).
T1 sequence (whole entry): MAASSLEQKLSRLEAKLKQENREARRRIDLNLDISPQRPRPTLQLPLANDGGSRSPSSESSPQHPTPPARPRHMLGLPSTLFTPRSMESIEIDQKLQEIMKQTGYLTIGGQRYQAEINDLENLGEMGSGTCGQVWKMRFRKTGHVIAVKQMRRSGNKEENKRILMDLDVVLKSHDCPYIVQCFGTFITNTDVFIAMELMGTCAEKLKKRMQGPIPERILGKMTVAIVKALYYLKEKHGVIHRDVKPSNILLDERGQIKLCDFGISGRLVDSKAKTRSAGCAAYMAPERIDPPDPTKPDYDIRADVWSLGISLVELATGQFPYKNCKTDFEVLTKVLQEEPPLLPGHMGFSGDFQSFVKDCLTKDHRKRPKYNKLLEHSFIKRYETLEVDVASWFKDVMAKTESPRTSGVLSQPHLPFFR
Briefly: Inhibition of MKK7beta at 0.1 uM; values are per cent of control.

Test [5] concerns the target T2, Calcium/calmodulin-dependent protein kinase type IV (Homo sapiens) (UniProt Q16566).
T2 sequence (whole entry): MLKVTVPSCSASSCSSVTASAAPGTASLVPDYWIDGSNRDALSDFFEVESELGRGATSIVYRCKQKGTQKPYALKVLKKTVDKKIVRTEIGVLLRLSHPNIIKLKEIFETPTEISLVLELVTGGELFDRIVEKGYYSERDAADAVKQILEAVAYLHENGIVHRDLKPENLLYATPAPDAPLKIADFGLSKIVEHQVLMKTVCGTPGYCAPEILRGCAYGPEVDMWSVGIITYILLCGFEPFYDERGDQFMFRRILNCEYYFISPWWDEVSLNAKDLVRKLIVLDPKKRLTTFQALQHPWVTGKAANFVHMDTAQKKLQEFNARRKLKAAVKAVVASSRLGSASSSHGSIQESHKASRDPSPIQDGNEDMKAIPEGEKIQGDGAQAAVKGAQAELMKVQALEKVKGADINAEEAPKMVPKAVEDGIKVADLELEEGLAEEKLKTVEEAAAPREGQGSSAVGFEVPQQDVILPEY
Briefly: Inhibition of CaMK4 at 0.1 uM; values are per cent of control.

Test [6] has as its target T3, Ephrin type-B receptor 2 (Homo sapiens) (UniProt P29323).
T3 sequence (whole entry): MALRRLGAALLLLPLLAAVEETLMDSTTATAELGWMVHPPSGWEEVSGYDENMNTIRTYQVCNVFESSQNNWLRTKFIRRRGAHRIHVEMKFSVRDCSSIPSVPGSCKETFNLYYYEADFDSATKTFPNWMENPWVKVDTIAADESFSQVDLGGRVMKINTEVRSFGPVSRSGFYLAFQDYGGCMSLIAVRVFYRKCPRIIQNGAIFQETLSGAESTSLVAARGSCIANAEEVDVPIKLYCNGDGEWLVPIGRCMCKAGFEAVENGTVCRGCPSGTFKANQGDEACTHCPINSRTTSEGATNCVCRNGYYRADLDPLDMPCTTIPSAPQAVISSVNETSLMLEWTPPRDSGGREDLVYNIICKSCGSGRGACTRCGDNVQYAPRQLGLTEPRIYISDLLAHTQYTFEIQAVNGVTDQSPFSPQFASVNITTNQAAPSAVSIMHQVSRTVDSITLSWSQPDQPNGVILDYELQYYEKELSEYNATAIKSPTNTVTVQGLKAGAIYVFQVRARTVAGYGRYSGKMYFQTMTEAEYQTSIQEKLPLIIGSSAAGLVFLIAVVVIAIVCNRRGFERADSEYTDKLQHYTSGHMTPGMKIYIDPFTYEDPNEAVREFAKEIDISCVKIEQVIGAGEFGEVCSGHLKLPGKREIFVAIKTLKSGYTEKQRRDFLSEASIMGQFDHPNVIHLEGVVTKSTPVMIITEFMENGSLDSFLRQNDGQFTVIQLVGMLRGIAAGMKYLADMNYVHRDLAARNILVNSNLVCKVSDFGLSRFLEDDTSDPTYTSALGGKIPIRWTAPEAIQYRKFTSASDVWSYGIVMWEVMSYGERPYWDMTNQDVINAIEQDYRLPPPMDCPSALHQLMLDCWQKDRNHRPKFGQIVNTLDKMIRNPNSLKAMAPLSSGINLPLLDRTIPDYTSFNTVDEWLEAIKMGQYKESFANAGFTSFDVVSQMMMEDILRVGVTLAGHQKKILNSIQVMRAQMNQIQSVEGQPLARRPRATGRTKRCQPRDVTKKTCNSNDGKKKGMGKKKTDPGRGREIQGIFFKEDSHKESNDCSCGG
Briefly: Inhibition of EphB2 at 0.1 uM; values are per cent of control.

Test [7] has as its target T4, Protein kinase C iota type (Homo sapiens) (UniProt P41743).
T4 sequence (whole entry): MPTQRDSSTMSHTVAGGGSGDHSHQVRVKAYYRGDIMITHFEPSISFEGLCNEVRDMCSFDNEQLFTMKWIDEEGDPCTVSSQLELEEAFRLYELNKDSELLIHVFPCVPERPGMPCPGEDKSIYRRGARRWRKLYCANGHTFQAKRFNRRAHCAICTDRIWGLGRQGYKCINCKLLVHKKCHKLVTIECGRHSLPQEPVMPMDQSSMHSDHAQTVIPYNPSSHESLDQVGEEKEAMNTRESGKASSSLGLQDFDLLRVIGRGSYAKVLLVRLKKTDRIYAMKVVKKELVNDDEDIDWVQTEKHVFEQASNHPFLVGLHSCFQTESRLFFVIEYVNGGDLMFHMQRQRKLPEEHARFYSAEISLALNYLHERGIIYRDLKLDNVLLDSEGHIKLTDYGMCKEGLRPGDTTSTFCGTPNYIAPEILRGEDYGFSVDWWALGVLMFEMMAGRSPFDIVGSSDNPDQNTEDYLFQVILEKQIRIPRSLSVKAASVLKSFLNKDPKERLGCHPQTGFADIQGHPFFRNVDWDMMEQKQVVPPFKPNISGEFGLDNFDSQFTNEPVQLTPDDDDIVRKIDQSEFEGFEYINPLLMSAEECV
Briefly: Inhibition of PKCiota at 0.1 uM; values are per cent of control.

Test [8] deals with Tyrosine-protein kinase Fes/Fps (Homo sapiens) (UniProt P07332). The test can be described thus: Inhibition of Fes at 0.1 uM; values are per cent of control.
Sequence of Tyrosine-protein kinase Fes/Fps (Homo sapiens) (P07332 whole entry): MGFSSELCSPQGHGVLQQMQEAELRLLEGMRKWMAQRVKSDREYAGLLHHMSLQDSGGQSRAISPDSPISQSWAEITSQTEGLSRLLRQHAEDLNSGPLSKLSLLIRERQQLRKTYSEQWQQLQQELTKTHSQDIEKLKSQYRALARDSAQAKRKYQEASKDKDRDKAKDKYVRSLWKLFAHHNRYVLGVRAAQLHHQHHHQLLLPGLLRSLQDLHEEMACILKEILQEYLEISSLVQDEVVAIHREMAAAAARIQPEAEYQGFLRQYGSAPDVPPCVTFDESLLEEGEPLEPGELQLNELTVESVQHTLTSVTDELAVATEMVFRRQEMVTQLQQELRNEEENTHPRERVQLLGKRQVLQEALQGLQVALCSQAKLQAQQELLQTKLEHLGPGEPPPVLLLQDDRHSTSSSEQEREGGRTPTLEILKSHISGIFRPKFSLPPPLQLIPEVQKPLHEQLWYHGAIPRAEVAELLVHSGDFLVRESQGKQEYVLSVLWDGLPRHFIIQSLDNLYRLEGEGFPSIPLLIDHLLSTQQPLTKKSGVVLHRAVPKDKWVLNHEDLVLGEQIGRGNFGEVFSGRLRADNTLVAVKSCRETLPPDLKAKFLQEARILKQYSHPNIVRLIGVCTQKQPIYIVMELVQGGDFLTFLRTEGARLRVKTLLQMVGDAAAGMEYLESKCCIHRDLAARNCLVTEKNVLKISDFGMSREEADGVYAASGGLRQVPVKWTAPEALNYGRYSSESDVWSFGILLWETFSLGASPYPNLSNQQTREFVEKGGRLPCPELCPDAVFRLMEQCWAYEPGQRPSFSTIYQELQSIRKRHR

Sequence of Protein kinase C theta type (Homo sapiens) (Q04759 whole entry, looked up): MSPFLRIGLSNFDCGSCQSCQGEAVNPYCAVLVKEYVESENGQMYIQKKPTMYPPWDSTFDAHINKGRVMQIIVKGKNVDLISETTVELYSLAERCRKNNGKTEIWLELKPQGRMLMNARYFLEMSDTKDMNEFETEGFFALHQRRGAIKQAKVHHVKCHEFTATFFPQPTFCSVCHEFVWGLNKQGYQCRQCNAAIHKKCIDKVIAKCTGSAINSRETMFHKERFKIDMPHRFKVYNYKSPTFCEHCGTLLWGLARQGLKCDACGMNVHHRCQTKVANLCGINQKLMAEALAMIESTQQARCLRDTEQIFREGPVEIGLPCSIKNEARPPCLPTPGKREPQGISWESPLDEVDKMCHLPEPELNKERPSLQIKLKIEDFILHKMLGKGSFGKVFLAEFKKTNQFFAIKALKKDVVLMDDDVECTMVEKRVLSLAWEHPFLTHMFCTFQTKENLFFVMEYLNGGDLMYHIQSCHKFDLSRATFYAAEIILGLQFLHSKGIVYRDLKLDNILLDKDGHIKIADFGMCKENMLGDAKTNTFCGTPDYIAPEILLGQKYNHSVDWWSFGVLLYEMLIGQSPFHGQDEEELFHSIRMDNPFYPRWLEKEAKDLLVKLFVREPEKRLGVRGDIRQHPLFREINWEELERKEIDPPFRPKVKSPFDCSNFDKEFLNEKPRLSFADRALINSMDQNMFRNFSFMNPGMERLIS
Sequence of Insulin-like growth factor 1 receptor (Homo sapiens) (P08069 31-736 limits assumed): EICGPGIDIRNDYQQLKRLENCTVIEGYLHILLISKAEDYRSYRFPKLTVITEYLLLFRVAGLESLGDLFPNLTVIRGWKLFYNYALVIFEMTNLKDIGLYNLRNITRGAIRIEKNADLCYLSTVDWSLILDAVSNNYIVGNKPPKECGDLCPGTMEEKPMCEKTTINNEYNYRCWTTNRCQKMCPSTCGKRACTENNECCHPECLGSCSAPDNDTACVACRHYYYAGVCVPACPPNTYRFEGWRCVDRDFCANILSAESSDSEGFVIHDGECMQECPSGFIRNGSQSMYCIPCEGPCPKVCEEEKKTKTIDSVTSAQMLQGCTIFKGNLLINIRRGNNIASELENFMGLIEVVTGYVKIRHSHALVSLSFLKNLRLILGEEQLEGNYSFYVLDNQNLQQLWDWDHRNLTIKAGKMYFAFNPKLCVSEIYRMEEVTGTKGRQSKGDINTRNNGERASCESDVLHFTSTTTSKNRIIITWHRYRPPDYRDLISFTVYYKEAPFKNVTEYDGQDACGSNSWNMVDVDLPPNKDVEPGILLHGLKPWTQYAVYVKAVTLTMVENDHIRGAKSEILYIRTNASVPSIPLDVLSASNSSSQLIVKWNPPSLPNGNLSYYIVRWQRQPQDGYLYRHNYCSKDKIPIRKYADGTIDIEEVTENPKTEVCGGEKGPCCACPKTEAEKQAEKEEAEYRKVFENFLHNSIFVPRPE
Sequence of Insulin-like growth factor 1 receptor (Homo sapiens) (P08069 741-1367 limits assumed): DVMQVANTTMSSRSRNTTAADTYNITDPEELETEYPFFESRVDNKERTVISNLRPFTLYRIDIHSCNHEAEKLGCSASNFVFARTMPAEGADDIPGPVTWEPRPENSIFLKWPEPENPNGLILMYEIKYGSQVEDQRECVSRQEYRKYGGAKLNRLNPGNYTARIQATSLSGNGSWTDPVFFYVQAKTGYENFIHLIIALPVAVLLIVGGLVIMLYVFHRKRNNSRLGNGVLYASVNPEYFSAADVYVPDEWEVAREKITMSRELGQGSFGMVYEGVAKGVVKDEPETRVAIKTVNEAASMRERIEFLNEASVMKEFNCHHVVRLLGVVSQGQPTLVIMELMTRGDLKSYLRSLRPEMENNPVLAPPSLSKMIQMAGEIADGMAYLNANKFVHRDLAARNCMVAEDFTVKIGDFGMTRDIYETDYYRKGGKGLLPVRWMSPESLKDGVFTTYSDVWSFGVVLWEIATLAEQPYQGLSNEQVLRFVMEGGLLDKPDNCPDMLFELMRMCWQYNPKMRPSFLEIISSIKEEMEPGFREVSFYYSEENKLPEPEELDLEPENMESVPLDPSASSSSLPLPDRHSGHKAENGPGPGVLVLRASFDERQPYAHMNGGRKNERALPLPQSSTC
Sequence of Fibroblast growth factor receptor 2 (Homo sapiens) (P21802 22-821 limits assumed): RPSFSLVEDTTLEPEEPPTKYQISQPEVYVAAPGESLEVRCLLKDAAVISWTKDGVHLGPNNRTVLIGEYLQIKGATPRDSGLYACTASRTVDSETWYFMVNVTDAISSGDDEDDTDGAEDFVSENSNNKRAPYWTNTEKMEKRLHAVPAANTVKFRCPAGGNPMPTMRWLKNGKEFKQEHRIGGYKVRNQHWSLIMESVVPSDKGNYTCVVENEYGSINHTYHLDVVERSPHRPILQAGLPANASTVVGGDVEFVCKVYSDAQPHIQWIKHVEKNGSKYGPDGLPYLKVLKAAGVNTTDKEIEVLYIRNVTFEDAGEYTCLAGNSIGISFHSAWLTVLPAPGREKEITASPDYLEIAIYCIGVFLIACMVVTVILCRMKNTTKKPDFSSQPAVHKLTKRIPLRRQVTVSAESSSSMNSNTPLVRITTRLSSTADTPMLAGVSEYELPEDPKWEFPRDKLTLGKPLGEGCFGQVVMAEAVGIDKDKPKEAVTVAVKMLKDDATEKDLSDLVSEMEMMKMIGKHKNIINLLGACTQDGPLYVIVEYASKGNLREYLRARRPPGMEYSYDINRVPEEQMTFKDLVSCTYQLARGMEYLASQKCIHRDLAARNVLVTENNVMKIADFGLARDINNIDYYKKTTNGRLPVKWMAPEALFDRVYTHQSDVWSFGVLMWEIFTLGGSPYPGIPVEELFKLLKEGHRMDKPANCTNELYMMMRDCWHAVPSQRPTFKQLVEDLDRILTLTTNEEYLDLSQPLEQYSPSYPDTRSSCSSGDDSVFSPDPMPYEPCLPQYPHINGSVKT

For `Cc1ccc2cc(-c3n[nH]c4ccc(NC5CCNC5)cc34)[nH]c2c1` (stereo unspecified), the residual activity in test [1] was determined as 23%; in test [2], 98%; in test [3], 8%; in test [4], 98%; in test [5] it was 74%; in test [6], 87%. Further, the residual activity in test [7] was 89%; in test [8], 3%.
`Cc1ccc2cc(-c3n[nH]c4ccc(NC5CCN(Cc6ccccc6)CC5)cc34)[nH]c2c1`: the residual activity in test [1] amounted to 6%; in test [2] it was 52%; in test [3], 51%; in test [4], 103%; in test [5], 109%; in test [6], 99%. Also, the results for the residual activity in test [7] and in test [8] were 109% and 28%, respectively.
